Test results taken from publication PMC11292009, “Mapping protein binding sites by photoreactive fragment pharmacophores” (Communications Chemistry, 2024).
Several values for one entry are separate records, joined by “and”; a condition that tells them apart may be missing. Equal entries are not always repeated.

Key:
[1] = test system: carbonic anhydrase II (CA); test: Intact protein MS photoaffinity labeling screen, carbonic anhydrase; format: binding; settings: intact protein MS after 10 min irradiation
How it was run: (§1)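 Fragments are tested singly per well. Protein and fragment incubate 15 min for non-covalent association, then the plate goes directly to intact protein mass spectrometry, where mass shifts matching fragment addition give the labeling %.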

BRD4-BD1 = test system: T1, BRD4-BD1; test: Intact MS photoaffinity labeling screen, BRD4-BD1 (302 nm, LCMS-TOF); format: binding; settings: for MS labeling percentage, BRD4: BRD4-BD1, 302 nm 10 min
T1 construct: screened the PhP library against the first bromodomain of BRD4 (BRD4-BD1); purchased GSK/GenScript
How it was run: (§2)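 Labeling detected as mass additions in deconvoluted intact-protein LCMS-TOF spectra. Protein at 1 μM in PBS was first mixed with one fragment per well on ice for 15 min, followed by 10 min UV exposure at 302 nm.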

KRas^G12D = test system: T2, KRas^G12D; test: Intact MS photoaffinity labeling screen, KRas G12D (302 nm, LCMS-TOF); format: binding; settings: for MS labeling percentage, KRas: KRas G12D, 302 nm 10 min
T2 construct: purchased GSK/GenScript
How it was run: as §2

lysozyme (Lyo) = test: Intact protein MS photoaffinity labeling screen, lysozyme; format: binding; settings: intact protein MS after 10 min irradiation
How it was run: as §1

myoglobin (Myo) = test: Intact protein MS photoaffinity labeling screen, myoglobin; format: binding; settings: intact protein MS after 10 min irradiation
How it was run: as §1

STAT5B-NTD [2] = test system: T3, STAT5B-NTD; test: Intact MS photoaffinity labeling screen, STAT5B-NTD (365 nm, UHPLC-MS); format: binding;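 on MS labeling percentage, STAT5B: 0.17 µL of 100 mM DMSO fragment stock added to the protein sample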
T3 construct: His-SUMO (N, cleaved yes); made in house; host or cells: E. coli BL21 RILP
How it was run: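 Intact-protein labeling detected by UHPLC-MS in positive ion mode over m/z 100–2000. Samples were first photo-crosslinked at 365 nm for 10 min at 4 °C. Before irradiation, 7 µM STAT5B in PBS pH 7.4 was pre-incubated with probe for 1 h in the dark at room temperature.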

STAT5B-NTD [3] = test system: T3, STAT5B-NTD; test: Intact MS labeling screen, STAT5B-NTD conjugated with photocatalyst Ir-G2-PEG3-COOH (450 nm); format: binding; settings: 450 nm 10 min;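 further: 0.14 µL of 100 mM DMSO fragment stock added to the conjugate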
How it was run: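 Ir-G2-PEG3-COOH photocatalyst (10 eq) activated 30 min with EDC/NHS/BOP, then conjugated to STAT5B-NTD (7 µM) overnight at RT or 1 h at 37 °C in dark. PhP added, 1 h dark, then 450 nm irradiation 10 min at 4 °C; labeling read by intact LC-MS, positive ion mode, m/z 100–2000.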

MOLM-13 cells = test: CellTiter-Blue cell viability assay, MOLM-13; format: cell-based; settings: Homo sapiens, MOLM-13, 72 h
Description: MV4-11 and MOLM-13 cell lines were purchased from DSMZ (Braunschweig, Germany), and grown at 37 °C and 5% CO2 in RPMI 1640 medium (Gibco^TM, Thermo Fisher Scientific). Media were supplemented with 10% fetal calf serum (FCS), 10 U/mL penicillin, 10 µg/mL streptomycin and 2 mM L-glutamine (all Gibco^TM, Thermo Fisher Scientific).
To determine the IC50 of the selected compounds on the cell lines, CellTiter-Blue® cell viability assay (Promega) was performed. For this, cells were seeded in 96-well flat bottom plates at a cell density of 10,000 cells/well. Cells were treated in triplicates with the compound of interest at various concentrations or with 10 μM Bortezomib (S1013; Selleck Chemicals, Houston, TX, USA) as a positive control. Cell viability of treated cell lines was measured using CellTiter-Blue® after 72 h incubation. Plates were measured using a GloMax® plate reader (Promega) and IC50 values were determined by non-linear regression using the GraphPad Prism 9.1.1 (GraphPad Software, Inc.) and the data are reported as mean values ± SEM.

[4] = test system: CA, Lyo, Myo, BRD4-BD1, KRas G12D, STAT5B-NTD; test: Intact MS labeling compared over all protein targets; format: binding; settings: for Labeling of the other protein targets (vs. preferred target): each of the other targets
Description: Using a plate-based format with one fragment per well, each fragment was incubated with the target proteins for 15 min to allow for the formation of non-covalent interactions. The plate was then irradiated at 302 or 365 nm for 10 min to enable the bound fragments to crosslink to the protein[26]. Finally, the results were directly analyzed from the plate using intact protein mass spectrometry by observing the mass additions that correspond to successful labeling (Fig. 2c, for labeling % values see Supplementary data). The library was first characterized against three benchmark proteins like carbonic anhydrase (CA), lysozyme (Lyo), and myoglobin (Myo).
The PhP library was screened against BRD4-BD1 and KRas^G12D as follows. Using a Labcyte Echo® 555 Liquid Handler, 150 nL of fragment solution (20 mM) was transferred into a Greiner 384 low-volume plate (white) to prepare the probe plate. The probe plate was placed on ice. 15 μL of protein stock solution (1 μM BRD4-BD1 (GSK/GenScript) or KRas^G12D (GSK/GenScript) in PBS buffer) was dispensed into wells containing fragments. The plate was left on ice for 15 min for incubation, then irradiated at 302 nm for 10 min, and centrifuged (1000 rpm, 1 min) to remove any bubbles. The plate was then analyzed by LCMS-TOF mass spectrometry (Agilent 1200 series liquid chromatography with Agilent Bio-HPLC PLRP-S (1000 Å, 5 µm × 50 mm × 1.0 mm, PL1312-1502) reverse phase HPLC column at 70 °C equipped with an Agilent G6224 time-of-flight (ToF), see Supplementary Note 2 for the full protocols). The deconvoluted spectra were analyzed using R Studio software.
During the analysis, the column temperature was maintained at a constant 60 °C, and a sample volume of 3 µL was injected for each analysis. Data acquisition was conducted in positive ion mode within the m/z 100–2000 (mass-to-charge ratio) range. For the full protocol and spectra of the hits, see Supplementary Note 2.

[5] = sheet PhP, experimental hit status flag given as 0 or 1
[6] = PhP library sheet "PhP", binary flag printed as 0 or 1, key not given

| Compound | MS labeling percentage, CA [1] | BRD4-BD1 (experimental hit status) (BRD4-BD1; [5]) | MS labeling percentage, KRas (KRas^G12D) | KRAS-G12D (experimental hit status) (KRas^G12D; [5]) | MS labeling percentage, Lyo (lysozyme (Lyo)) | MS labeling percentage, Myo (myoglobin (Myo)) | STAT5B-NTD (experimental hit status) (STAT5B-NTD [2]; [5]) | MS labeling percentage, STAT5B+photocat (STAT5B-NTD [3]) | IC50 (MOLM-13 cells) | Labeling of the other protein targets (vs. preferred target) [4] | MS labeling percentage, BRD4 (BRD4-BD1) | MS labeling percentage, STAT5B (STAT5B-NTD [2]; STAT5B-NTD, 365 nm 10 min, no photocatalyst) | Labeling efficiency over all protein targets (mean ± spread) ([4]; over all protein targets) | BRD4-BD1 (experimental hit status) (BRD4-BD1; [6]) | KRAS-G12D (experimental hit status) (KRas^G12D; [6]) | STAT5B-NTD (experimental hit status) (STAT5B-NTD [2]; [6]) |
| --- | --- | --- | --- | --- | --- | --- | --- | --- | --- | --- | --- | --- | --- | --- | --- | --- |
| Cc1[nH]c2ccccc2c1SCCNC(=O)CCC1(C)N=N1 [PhP065, c1cccc(c12)c(c(C)[nH]2)SCCNC(=O)CCC3(C)N=N3] | 0.3% | 0 | 0.2% | 0 | 2.6% | 0.1% | 1 | 11.2% | 100 µM | > 3% and < 3% |  |  |  |  |  |  |
| Cc1ncc(CO)c(CNC(=O)CCC2(C)N=N2)c1O [PhP072, Cc1ncc(CO)c(c1O)CNC(=O)CCC2(C)N=N2] | 7.7% | 1 | 12.2% | 1 | 1% | 3.3% | 0 | 3.3% |  |  | 2.2% | 0% | 4.4 ± 4.3% |  |  |  |
| CC1(CCC(=O)NCCc2csc(-c3ccccc3)n2)N=N1 [PhP097, N1=NC1(C)CCC(=O)NCCc2csc(n2)-c3ccccc3] | 0% |  | 0.2% |  | 1.8% | 0.1% |  | 4.2% | 68.2 µM | > 3% and < 3% | 0.5% |  |  | 0 | 0 | 1 |
